Experimental data reported in paper PMC9395488, “First-in-human study of IM156, a novel potent biguanide oxidative phosphorylation (OXPHOS) inhibitor, in patients with advanced solid tumors” (Investigational New Drugs, 2022).

System: patients with advanced solid tumors
Assay: First-in-human phase 1 dose-escalation study: safety, DLTs, adverse events
Type: in vivo
Excerpt: This multicenter first-in-human dose-escalation phase 1 study (clinicaltrials.gov identifier: NCT03272256) was designed to determine the MTD or RP2D and to evaluate the safety and tolerability of IM156. Secondary endpoints included PK characteristics, efficacy assessment (objective response rate [ORR], disease control rate [DCR], duration of response [DoR] and progression-free survival [PFS]). Furthermore, exploratory objectives included identification and profiling of IM156 metabolites, evaluations of exploratory PD markers of IM156, and evaluations of any potential relationship between putative biomarkers and safety/efficacy parameters of IM156. The study was conducted in accordance with Good Clinical Practice, the International Council for Harmonisation, and guidelines governing clinical study conduct and the ethical principles originating from the Declaration of Helsinki. The study was approved by each Institutional Review Board and patients provided written informed consent. Patients were enrolled at three sites in South Korea.
The initial dose and schedule of IM156 was chosen based on animal toxicology studies. […] IM156 was administered in the fasted state, with no food for at least 2 h before and 1 h after dosing.
Three DLT-evaluable patients were enrolled at each dose level. If there were no DLTs or other prohibitive adverse events (AEs), the Safety Committee was allowed to recommend escalation to the next highest dose level. If 1 DLT occurred in the first 3 DLT-evaluable patients, enrollment in that cohort was expanded to an additional 3 DLT-evaluable patients; if ≥ 2 DLTs were reported in a cohort, that dose was considered above the MTD.
Safety was assessed through vital signs, weight, laboratory assessments, physical examinations, electrocardiogram, and reporting of AEs as graded by the National Cancer Institute’s Common Terminology Criteria for Adverse Events v4.03 (NCI-CTCAE).
DLTs were defined as the following AEs if they were attributed as related to IM156: asymptomatic grade 4 neutropenia lasting for ≥ 5 days; febrile neutropenia, regardless of grade; grade 4 thrombocytopenia or grade 3 thrombocytopenia with bleeding; any grade ≥ 3 non-hematologic AE (except grade 3 hypertension and grade 3 nausea, vomiting or diarrhea for which proper measures for prevention and treatment were not implemented, and alopecia); blood lactate levels > 5 mmol; grade ≥ 2 AE prohibiting dosing of IM156 for ≥ 21 continuous days except for alterations in serum calcium or phosphorus levels. The safety analysis includes all patients who received at least one dose of study drug.
The safety population was defined as all patients who received at least one dose of IM156. The PK population was not defined in the protocol but included all patients with sufficient PK data to perform adequate PK modeling. The efficacy population included all patients who underwent at least one tumor imaging assessment while receiving IM156. Safety was assessed using descriptive statistics (e.g., DLTs, AEs, laboratory tests, physical examination, 12-lead ECG). The incidence and number of events were reported for the DLTs observed in Cycle 1 per dose group. […] Adverse events and TRAEs were standardized with the System Organ Class and the Preferred Term using the Medical Dictionary for Regulatory Activities v23.0. In addition, TEAEs, serious adverse events (SAEs), TEAE severity, and TEAEs leading to withdrawal were presented by dose group. Efficacy data were to be presented by Waterfall and Swim Lane plots. Time to event endpoints (e.g., DoR, PFS) were determined using Kaplan–Meier estimations with the median value for each endpoint summarized.

[1] = DL1 100 mg orally every other day (n=3)

NC(=Nc1ccc(OC(F)(F)F)cc1)N=C(N)N1CCCC1 [IM156]
2: SAE Abdominal distension: Grade (100 mg QOD) | SAE Cystitis: Grade (800 mg QOD) | SAE Akathisia: Grade (1,200 mg QD) | SAE Lethargy: Grade (1,200 mg QD)
no trend: trend of blood lactate levels with dose or exposure (100 to 1,200 mg)
Possible: SAE Nausea: Causality (1,200 mg QOD)
no DLTs: dose-limiting toxicities (DLTs), all dose levels (100 to 1,200 mg QOD or QD, cycle 1)
3: SAE Gastric Obstruction: Grade (100 mg QOD) | SAE Ileus: Grade (200 mg QOD) | SAE Worsen abdominal pain: Grade (800 mg QOD) | SAE Perforated Appendicitis: Grade (1,200 mg QD) | SAE Nausea: Grade (1,200 mg QOD)
1: TEAE Abdominal distension, grade 2 (DL1 100 mg QOD (n=3)) | TEAE Ascites, grade 1 (DL1 100 mg QOD (n=3)) | TEAE Blood creatinine increased, grade 1 (DL1 100 mg QOD (n=3)) | TEAE Decreased appetite, grade 1 (DL1 100 mg QOD (n=3)) | TEAE Diarrhoea, grade 2 (DL1 100 mg QOD (n=3)) | TEAE Gastrointestinal pain, grade 2 (DL1 100 mg QOD (n=3)) | TEAE Hypoalbuminaemia, grade 2 (DL1 100 mg QOD (n=3)) | TEAE Large intestinal obstruction, grade 2 (DL1 100 mg QOD (n=3)) | TEAE Nausea, grade 1 (DL1 100 mg QOD (n=3)) | TEAE Obstruction gastric, grade 3 (DL1 100 mg QOD (n=3)) | TEAE Proctalgia, grade 2 (DL1 100 mg QOD (n=3)) | TEAE Pyrexia, grade 1 (DL1 100 mg QOD (n=3)) | TEAE Vomiting, grade 1 (DL1 100 mg QOD (n=3)) | TEAE Anaemia grade 2 [1]
Recovered without sequelae: SAE Abdominal distension: Outcome (100 mg QOD) | SAE Gastric Obstruction: Outcome (100 mg QOD) | SAE Ileus: Outcome (200 mg QOD) | SAE Cystitis: Outcome (800 mg QOD) | SAE Akathisia: Outcome (1,200 mg QD) | SAE Lethargy: Outcome (1,200 mg QD) | SAE Perforated Appendicitis: Outcome (1,200 mg QD)
Yes: SAE Abdominal distension: Dose Interrupted (100 mg QOD) | SAE Gastric Obstruction: Dose Interrupted (100 mg QOD) | SAE Cystitis: Dose Interrupted (800 mg QOD) | SAE Worsen abdominal pain: Dose Interrupted (800 mg QOD) | SAE Lethargy: Dose Interrupted (1,200 mg QD) | SAE Nausea: Dose Interrupted (1,200 mg QOD)
0: TRAE Abdominal Pain, > G3 (patients) (DL1 100 mg QOD oral, N = 3) | TRAE Abdominal Pain, All grades (patients) (DL1 100 mg QOD oral, N = 3) | TRAE Blood Lactic Acid increased, > G3 (patients) (DL1 100 mg QOD oral, N = 3) | TRAE Blood Lactic Acid increased, All grades (patients) (DL1 100 mg QOD oral, N = 3) | TRAE Constipation, > G3 (patients) (DL1 100 mg QOD oral, N = 3) | TRAE Constipation, All grades (patients) (DL1 100 mg QOD oral, N = 3) | TRAE Decreased appetite, > G3 (patients) (DL1 100 mg QOD oral, N = 3) | TRAE Decreased appetite, All grades (patients) (DL1 100 mg QOD oral, N = 3) | TRAE Diarrhoea, > G3 (patients) (DL1 100 mg QOD oral, N = 3) | TRAE Diarrhoea, All grades (patients) (DL1 100 mg QOD oral, N = 3) | TRAE Fatigue, > G3 (patients) (DL1 100 mg QOD oral, N = 3) | TRAE Fatigue, All grades (patients) (DL1 100 mg QOD oral, N = 3) | TRAE Insomnia, > G3 (patients) (DL1 100 mg QOD oral, N = 3) | TRAE Insomnia, All grades (patients) (DL1 100 mg QOD oral, N = 3) | TRAE Nausea, > G3 (patients) (DL1 100 mg QOD oral, N = 3) | TRAE Nausea, All grades (patients) (DL1 100 mg QOD oral, N = 3) | TRAE Vomiting, > G3 (patients) (DL1 100 mg QOD oral, N = 3) | TRAE Vomiting, All grades (patients) (DL1 100 mg QOD oral, N = 3) | TEAE Adrenal insufficiency grade 1 [1] | TEAE Adrenal insufficiency grade 2 [1] | TEAE Adrenal insufficiency grade 3 [1] | TEAE Adrenal insufficiency grade 4 [1] | TEAE Anaemia grade 1 [1] | TEAE Anaemia grade 3 [1] | TEAE Anaemia grade 4 [1] | TEAE Appendicitis perforated grade 1 [1] | TEAE Appendicitis perforated grade 2 [1] | TEAE Appendicitis perforated grade 3 [1] | TEAE Appendicitis perforated grade 4 [1] | TEAE Back pain grade 1 [1] | TEAE Back pain grade 2 [1] | TEAE Back pain grade 3 [1] | TEAE Back pain grade 4 [1] | TEAE Cystitis grade 1 [1] | TEAE Cystitis grade 2 [1] | TEAE Cystitis grade 3 [1] | TEAE Cystitis grade 4 [1] | TEAE Dry skin grade 1 [1] | TEAE Dry skin grade 2 [1] | TEAE Dry skin grade 3 [1] | TEAE Dry skin grade 4 [1] | TEAE Flank pain grade 1 [1] | TEAE Flank pain grade 2 [1] | TEAE Flank pain grade 3 [1] | TEAE Flank pain grade 4 [1] | TEAE Hypertension grade 1 [1] | TEAE Hypertension grade 2 [1] | TEAE Hypertension grade 3 [1] | TEAE Hypertension grade 4 [1] | TEAE Hypotension grade 1 [1] | TEAE Hypotension grade 2 [1] | TEAE Hypotension grade 3 [1] | TEAE Hypotension grade 4 [1] | TEAE Insomnia grade 1 [1] | TEAE Insomnia grade 2 [1] | TEAE Insomnia grade 3 [1] | TEAE Insomnia grade 4 [1] | TEAE Pain in extremity grade 1 [1] | TEAE Pain in extremity grade 2 [1] | TEAE Pain in extremity grade 3 [1] | TEAE Pain in extremity grade 4 [1] | TEAE Pruritus grade 1 [1] | TEAE Pruritus grade 2 [1] | TEAE Pruritus grade 3 [1] | TEAE Pruritus grade 4 [1]
not well tolerated: tolerability (1,200 mg QD, due to nausea)
No: SAE Ileus: Dose Interrupted (200 mg QOD) | SAE Akathisia: Dose Interrupted (1,200 mg QD) | SAE Perforated Appendicitis: Dose Interrupted (1,200 mg QD)
Unlikely: SAE Abdominal distension: Causality (100 mg QOD) | SAE Gastric Obstruction: Causality (100 mg QOD) | SAE Ileus: Causality (200 mg QOD) | SAE Cystitis: Causality (800 mg QOD) | SAE Worsen abdominal pain: Causality (800 mg QOD) | SAE Akathisia: Causality (1,200 mg QD) | SAE Lethargy: Causality (1,200 mg QD) | SAE Perforated Appendicitis: Causality (1,200 mg QD)
Resolved to Grade 1: SAE Worsen abdominal pain: Outcome (800 mg QOD)
